Results: patent US6525001B1, “Substituted pyrimidine and pyridine herbicides” (Mid-American Commercialization Corporation, priority 1997, dated 2003)

Key:
Assay type in all cases: in vivo
Conditions in all cases: PREEMERGENCE
[1] = system: alexandergrass (Brachiaria plantaginea); test: Test E pre-/postemergence/post directed; parameters: key: 0 is no injury; 100 is complete control
Procedure, shortened: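 Greenhouse pots; compound in non-phytotoxic solvent with surfactant, sprayed preemergence within one day of planting, postemergence at two to four leaf stage (three to twenty cm), or post directed to plant base and soil. Visual injury rated 13 to 21 days after application, 0 (none) to 100 (complete control).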

[2] = system: blackgrass (Alopecurus myosuroides); test: Test D
[3] = system: downy brome (Bromus tectorum); test: Test D
[4] = system: galium 2 (Galium aparine); test: Test D; parameters: key: 0 is no effect; 100 is complete control
[5] = system: redroot pigweed (Amaranthus retroflexus); test: Test D
[6] = system: Russian thistle (Salsola kali); test: Test D
[7] = system: sugar beet (Beta vulgaris); test: Test D; parameters: key: 0 is no effect; 100 is complete control
[8] = system: winter wheat (Triticum aestivum); test: Test D

SMILES: CCc1cnc(-n2ccc(C(F)(F)F)n2)nc1Cc1cccc(C(F)(F)F)c1 [Compound 46]
- Plant response rating, Alexandergrass ([1]; Rate 32 g/ha): 0
- Plant response rating, Alexandergrass ([1]; Rate 64 g/ha): 0
- Plant response rating, Blackgrass ([2]; Rate 31 g/ha): 10
- Plant response rating, Blackgrass ([2]; Rate 62 g/ha): 60
- Plant response rating, Downy brome ([3]; Rate 31 g/ha): 70
- Plant response rating, Downy brome ([3]; Rate 62 g/ha): 70
- Plant response rating, Galium ([4]; Rate 31 g/ha): 60
- Plant response rating, Galium ([4]; Rate 62 g/ha): 60
- Plant response rating, Redroot pigweed ([5]; Rate 31 g/ha): 70
- Plant response rating, Redroot pigweed ([5]; Rate 62 g/ha): 70
- Plant response rating, Russian thistle ([6]; Rate 31 g/ha): 30
- Plant response rating, Russian thistle ([6]; Rate 62 g/ha): 30
- Plant response rating, Sugar beet ([7]; Rate 31 g/ha): 70
- Plant response rating, Sugar beet ([7]; Rate 62 g/ha): 100
- Plant response rating, Wheat (winter) ([8]; Rate 31 g/ha): 40
- Plant response rating, Wheat (winter) ([8]; Rate 62 g/ha): 2

SMILES: Cc1cnc(-n2cnc(C(F)(F)F)n2)nc1Cn1ccc(C(F)(F)F)n1 [Compound 51]
- Plant response rating, Blackgrass ([2]; Rate 31 g/ha): 60
- Plant response rating, Blackgrass ([2]; Rate 62 g/ha): 80
- Plant response rating, Downy brome ([3]; Rate 31 g/ha): 80
- Plant response rating, Downy brome ([3]; Rate 62 g/ha): 80
- Plant response rating, Galium ([4]; Rate 31 g/ha): 100
- Plant response rating, Galium ([4]; Rate 62 g/ha): 100
- Plant response rating, Redroot pigweed ([5]; Rate 31 g/ha): 70
- Plant response rating, Redroot pigweed ([5]; Rate 62 g/ha): 70
- Plant response rating, Russian thistle ([6]; Rate 31 g/ha): 60
- Plant response rating, Russian thistle ([6]; Rate 62 g/ha): 70
- Plant response rating, Sugar beet ([7]; Rate 31 g/ha): 100
- Plant response rating, Sugar beet ([7]; Rate 62 g/ha): 100
- Plant response rating, Wheat (winter) ([8]; Rate 31 g/ha): 30
- Plant response rating, Wheat (winter) ([8]; Rate 62 g/ha): 55
